Measurements from ChEMBL document CHEMBL3046115, “Modification and biological evaluation of novel 4-hydroxy-pyrone derivatives as non-peptidic HIV-1 protease inhibitors” (Med Chem Res, 2011).
The source made the active and inactive calls. The rule behind the calls is not given here.

Tests used:
Protease = Protease (Human immunodeficiency virus 1, UniProt Q9YQ12); experiment: Inhibition of Human immunodeficiency virus 1 protease using Lys-Ala-Arg-Val-Leu-Phe(NO2)-Glu-Ala-Met as substrate
[1] = test system: Simian immunodeficiency virus; experiment: Antiviral activity against Simian immunodeficiency virus infected CEM174 cells assessed as inhibition of viral-induced syncytium formation after 5 days by microscopic analysis; type: functional, organism-based; conditions: CEM174, 120 h
[2] = Cytotoxicity against Homo sapiens (human) CEM174 cells; type: cell-based; conditions: read-out: TC50 (the source's name)
[3] = Therapeutic index, ratio of TC50 for human CEM174 cells to EC50 for SIV infected in human CEM174 cells; type: cell-based; conditions: CEM174 cells (uninfected for TC50, SIV-infected for EC50), read-out: TI
[4] = molecular target: Protease (Human immunodeficiency virus 1) (UniProt Q9YQ12); experiment: Inhibition of Human immunodeficiency virus 1 protease expressed in human 293T cells cotransfected with pGAGPOL and pGAG assessed as Gagp24 protein expression after 48 hr by Western blot analysis; type: cell-based
Sequence of Protease (Human immunodeficiency virus 1) (Q9YQ12 as listed by the source): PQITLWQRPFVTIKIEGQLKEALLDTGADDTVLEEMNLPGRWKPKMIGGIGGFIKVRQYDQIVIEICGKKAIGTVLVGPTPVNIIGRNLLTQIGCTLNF

Sequence of Protease (Q9YQ12 whole entry): as the sequence (Q9YQ12 as listed by the source) above

SMILES | IC50 (Protease) [nM] | also measured
Cc1ccc(C(C)C)c(SC2=C(O)CC(CCc3ccccc3)(C(C)C)OC2=O)c1 (centres undefined) | 1.1 | EC50 [1]: 15000 nM
O=C(O)CCCCC1(CCc2ccccc2)CC(O)=C(SCCc2ccccc2)C(=O)O1 (centres undefined) | 5 | 
CC(C)(C)NC(=O)[C@@H]1CN(Cc2cccnc2)CCN1C[C@@H](O)C[C@@H](Cc1ccccc1)C(=O)N[C@H]1c2ccccc2C[C@H]1O |  | CC50 [2]: > 100000 nM; selectivity ratio [3]: > 1000; EC50 [1]: < 100 nM
Cc1ccc(C)c(SC2=C(O)CC(COc3cccc4ccccc34)(c3ccccc3)OC2=O)c1 (racemic) | 126 | 
O=C1OC(COc2ccc3ccccc3c2)(c2ccccc2)CC(O)=C1Sc1ccccc1 (racemic) | 126 | 
Cc1ccccc1SC1=C(O)CC(COc2ccc3ccccc3c2)(c2ccccc2)OC1=O (racemic) | 61 | 
CCc1ccccc1SC1=C(O)CC(COc2ccc3ccccc3c2)(c2ccccc2)OC1=O (racemic) | 22 | 
O=C1OC(COc2ccc3ccccc3c2)(c2ccccc2)CC(O)=C1Sc1ccccc1Cl (racemic) | 89 | 
Cc1ccc(C)c(SC2=C(O)CC(COc3ccc4ccccc4c3)(c3ccccc3)OC2=O)c1 (racemic) | 65 | 
O=C1OC(COc2ccc3ccccc3c2)(c2ccccc2)CC(O)=C1SCc1ccccc1 (racemic) | 73 | 
CCc1ccccc1SC1=C(O)CC(CSc2ccccc2)(c2ccccc2)OC1=O (racemic) | 238 | 
CCOc1ccc(OCC)c(SC2=C(O)CC(CSc3ccccc3)(c3ccccc3)OC2=O)c1 (racemic) | 24 | 
O=C1OC(COc2cccc3ccccc23)(c2ccccc2)CC(O)=C1Sc1ccccc1Cl (racemic) | 59 | 

Continued, in another order:

IC50 (Protease) [nM] | SMILES | also measured
3.5 | CCOc1ccc(OCC)c(SC2=C(O)CC(COc3cccc4ccccc34)(c3ccccc3)OC2=O)c1 (racemic) | inhibition [4]: Active
128 | O=C1OC(COc2cccc3ccccc23)(c2ccccc2)CC(O)=C1SCc1ccccc1 (racemic) | 
9.2 | CCOc1ccc(OCC)c(SC2=C(O)CC(COc3ccc4ccccc4c3)(c3ccccc3)OC2=O)c1 (racemic) | inhibition [4]: Active
258 | O=C1OC(CSc2ccccc2)(c2ccccc2)CC(O)=C1Sc1ccccc1 (racemic) | 
240 | Cc1ccccc1SC1=C(O)CC(CSc2ccccc2)(c2ccccc2)OC1=O (racemic) | 
70 | O=C1OC(CSc2ccccc2)(c2ccccc2)CC(O)=C1Sc1ccccc1Cl (racemic) | 
196 | Cc1ccc(C)c(SC2=C(O)CC(CSc3ccccc3)(c3ccccc3)OC2=O)c1 (racemic) | 
32 | O=C1OC(CSc2ccccc2)(c2ccccc2)CC(O)=C1SCc1ccccc1 (racemic) | 
159 | O=C1OC(COc2cccc3ccccc23)(c2ccccc2)CC(O)=C1Sc1ccccc1 (racemic) | 
64 | Cc1ccccc1SC1=C(O)CC(COc2cccc3ccccc23)(c2ccccc2)OC1=O (racemic) | 
100 | CCc1ccccc1SC1=C(O)CC(COc2cccc3ccccc23)(c2ccccc2)OC1=O (racemic) | 
